# Experimental data published in patent publication US7247617B2, “Sixteen-member macrolide antiinfective agents” (Kosan Biosciences Incorporated, priority 2004, dated 2007).
# What was measured:
# S. epidermidis = experiment: Biological activity against bacterial strains: S. epidermidis; format: cell-based, Staphylococcus epidermidis; conditions: strain ATCC12228
# S. pneumoniae = experiment: Biological activity against bacterial strains: S. pneumoniae; format: cell-based, Streptococcus pneumoniae; parameters: Biological Activity, S. pneumoniae ATCC6301 / Biological Activity, S. pneumoniae ATCC700671 / Biological Activity, S. pneumoniae ATCC700676* / Biological Activity, S. pneumoniae ATCC700677* / Biological Activity, S. pneumoniae ATCC700905* / Biological Activity, S. pneumoniae ATCC700906* / Biological Activity, S. pneumoniae ATCC49619: unit not given here; conditions: for Biological Activity, S. pneumoniae ATCC6301: strain ATCC6301; for Biological Activity, S. pneumoniae ATCC49619: strain ATCC49619; for Biological Activity, S. pneumoniae ATCC700671: strain ATCC700671; for Biological Activity, S. pneumoniae ATCC700676*: strain ATCC700676, macrolide resistant strain; for Biological Activity, S. pneumoniae ATCC700677*: strain ATCC700677, macrolide resistant strain; for Biological Activity, S. pneumoniae ATCC700905*: strain ATCC700905, macrolide resistant strain; for Biological Activity, S. pneumoniae ATCC700906*: strain ATCC700906, macrolide resistant strain
# E. faecalis = experiment: Biological activity against bacterial strains: E. faecalis; format: cell-based, Enterococcus faecalis; conditions: strain ATCC51575
# S. aureus = experiment: Biological activity against bacterial strains: S. aureus; format: cell-based, Staphylococcus aureus; parameters: unit not given here; conditions: for Biological Activity, S. aureus ATCC6538p: strain ATCC6538p; for Biological Activity, S. aureus ATCC14154*: strain ATCC14154, macrolide resistant strain; for Biological Activity, S. aureus ATCC29213: strain ATCC29213; for Biological Activity, S. aureus ATCC33591*: strain ATCC33591, macrolide resistant strain; for Biological Activity, S. aureus ATCCBAA-39*: strain ATCCBAA-39, macrolide resistant strain; for Biological Activity, S. aureus ATCCBAA-44*: strain ATCCBAA-44, macrolide resistant strain
# Haemophilus Influenzae = experiment: H. influenzae Activity; format: cell-based; conditions: for potency against H. influenzae (in words): compared to compound A, OMT and Ketek
SMILES,"Biological Activity, S. epidermidis ATCC12228 (S. epidermidis)","Biological Activity, S. pneumoniae ATCC6301 (S. pneumoniae)","Biological Activity, S. pneumoniae ATCC49619 (S. pneumoniae)","Biological Activity, S. pneumoniae ATCC700671 (S. pneumoniae)","Biological Activity, S. pneumoniae ATCC700676* (S. pneumoniae)","Biological Activity, S. pneumoniae ATCC700677* (S. pneumoniae)","Biological Activity, S. pneumoniae ATCC700905* (S. pneumoniae)","Biological Activity, S. pneumoniae ATCC700906* (S. pneumoniae)","Biological Activity, E. faecalis ATCC51575 (E. faecalis)","Biological Activity, S. aureus ATCC6538p (S. aureus)","Biological Activity, S. aureus ATCC14154* (S. aureus)","Biological Activity, S. aureus ATCC29213 (S. aureus)","Biological Activity, S. aureus ATCC33591* (S. aureus)","Biological Activity, S. aureus ATCCBAA-39* (S. aureus)","Biological Activity, S. aureus ATCCBAA-44* (S. aureus)","H. influenzae Activity, strain ATCC9006 (Haemophilus Influenzae)","H. influenzae Activity, strain ATCC49766 (Haemophilus Influenzae)","H. influenzae Activity, strain EH001 (Haemophilus Influenzae)","H. influenzae Activity, strain EH002 (Haemophilus Influenzae)","H. influenzae Activity, strain EH003 (Haemophilus Influenzae)",other results
"CCC1OC(=O)CC(O)C(C)C(OC2OC(C)C(O)C(N(C)C)C2O)C(CC=O)CC(C)C(=NOCCCOc2ccc3ncccc3c2)C=CC(C)=CC1COC1OC(C)C(O)C(OC)C1OC (single isomer, unassigned) [Compound AA]",0.78,0.025,6.25,>12.5,0.049,6.25,6.25,>12.5,>12.5,0.39,0.78,0.78,>12.5,>12.5,>12.5,–,–,–,–,–,–
"CCC1OC(=O)CC(O)C(C)C(OC2OC(C)C(O)C(N(C)C)C2O)C(CC=O)CC(C)C(=NOCCCOc2ccc3ncccc3c2)C=CC(C)=CC1COC1OC(C)C(O)C(OC)C1OC (single isomer, unassigned) [Compound BB]",0.39,0.025,0.049,0.049,0.049,0.025,0.025,>12.5,>12.5,0.2,0.78,0.39,>12.5,>12.5,>12.5,–,–,–,–,–,–
"CCC1OC(=O)CC(O)C(C)C(OC2OC(C)C(O)C(N(C)C)C2O)C(CC=O)CC(C)C(=NOCC#Cc2cnc3ccccc3c2)C=CC(C)=CC1CO (single isomer, unassigned) [Compound D]",0.20,0.025,0.049,0.049,0.049,>12.5,0.049,>12.5,>12.5,0.098,0.78,0.39,>12.5,>12.5,>12.5,–,–,–,–,–,–
"CCC1OC(=O)CC(O)C(C)C(OC2OC(C)C(O)C(N(C)C)C2O)C(CC=O)CC(C)C(=NOCC=Cc2cnc3ccccc3c2)C=CC(C)=CC1CO (single isomer, unassigned) [Compound F]",0.049,0.025,0.025,0.049,0.049,>12.5,0.049,>12.5,>12.5,0.098,0.39,0.39,>12.5,>12.5,>12.5,–,–,–,–,–,–
"CCC1OC(=O)CC(O)C(C)C(OC2OC(C)C(O)C(N(C)C)C2O)C(CC=O)CC(C)C(=NOCCCOc2ccc3ncccc3c2)C=CC(C)=CC1CN(C)C (single isomer, unassigned) [Compound Y]",–,0.025,0.025,0.098,0.025,>12.5,0.025,>12.5,–,–,–,–,–,–,–,1.56,3.12,3.12,6.25,3.12,"potency against H. influenzae (in words) (Haemophilus Influenzae): improved potency against H. influenzae, to a level similar to OMT and Ketek™; activity / potency against S. pneumoniae (in words) (S. pneumoniae): essentially remained unchanged"
"CCC1OC(=O)CC(O)C(C)C(OC2OC(C)C(O)C(N(C)C)C2O)C(CC=O)CC(C)C(=NOCCCOc2ccc3ncccc3c2)C=CC(C)=CC1CN(C)C (single isomer, unassigned) [Compound Z]",–,0.025,0.049,0.049,0.025,>12.5,0.025,>12.5,–,–,–,–,–,–,–,1.56,3.12,3.12,3.12,1.56,"potency against H. influenzae (in words) (Haemophilus Influenzae): improved potency against H. influenzae, to a level similar to OMT and Ketek™; activity / potency against S. pneumoniae (in words) (S. pneumoniae): essentially remained unchanged"
"CC[C@H]1OC(=O)[C@H](C)[C@@H](O[C@H]2C[C@@](C)(OC)[C@@H](O)[C@H](C)O2)[C@H](C)[C@@H](O[C@@H]2O[C@H](C)C[C@H](N(C)C)[C@H]2O)[C@](C)(O)C[C@@H](C)C(=O)[C@H](C)[C@@H](O)[C@]1(C)O [Ery A, erythromycin A, reference compound]",0.20,0.025,0.049,0.049,6.25,6.25,3.12,–,–,0.098,–,0.20,–,–,–,1.56,6.25,3.12,6.25,3.12,–
"CC[C@H]1OC(=O)[C@H](C)C(=O)[C@H](C)[C@@H](O[C@@H]2O[C@H](C)C[C@H](N(C)C)[C@H]2O)[C@](C)(OC)C[C@@H](C)C(=O)[C@H](C)[C@H]2N(CCCCn3cnc(-c4cccnc4)c3)C(=O)O[C@]12C [Ketek, telithromycin, reference compound]",–,–,–,–,–,–,–,–,–,–,–,–,–,–,–,1.56,3.12,1.56,6.25,1.56,–
